Measurements: patent US9527859B2, “Amidopyridine derivative and use thereof” (Mitsubishi Tanabe Pharma Corporation, priority 2012, dated 2016)
pIC50: −log10 of the molar value.

system: production of IL-17 in mouse splenocytes stimulated by recombinant mouse interleukin-23; experiment: Production of IL-17 induced when mouse splenocytes were stimulated by rm-IL-23 (ELISA); assay type: cell-based; conditions: Splenocyte, inhibition of IL-17 production, rm-IL-23 1 nmol/L, 72 hours
Method: Effect on Production of IL-17 Induced when Mouse Splenocytes were Stimulated by Recombinant Mouse Interleukin-23 (rm-IL-23)
RPMI1640 media (Sigma-Aldrich) were used as a medium, to which 50 units/mL penicillin G potassium/50 μg/mL streptomycin (Gibco) and […] 2-mercaptoethanol (Sigma-Aldrich) were added, and then thereto was added 10% of fetal calf serum (FCS; Cell Culture Technology) which was treated at 56° C. for 30 minutes to be inactivated, and the mixture was used in the Test. The test compound was dissolved in dimethylsulfoxide and then diluted with 10% FCS-containing RPMI1640 medium to a desired concentration to be used. The spleens were aseptically taken out from 6 to 7 week-old male DBA/1J mice (Charles River Japan, Inc.) and a single cell suspension of splenocytes was prepared, which was hemolyzed by hypotonic treatment with a mixed solution of 0.83% aqueous solution of ammonium chloride and Tris-HCl buffer of pH 7.65 (9:1). A cell suspension prepared by using 10% FCS-containing RPMI1640 medium was added to a flat-bottomed 96 well microtestplate (Coaster) at 2×10^5 cells/well. Thereto were added test compounds and rm-IL-23 (R&D systems) were diluted with a medium to 1 to 1,000 nmol/L and 1 nmol/L of the final concentration, respectively, and the mixture was cultured at 37° C., 5% carbon dioxide and 95% air for 72 hours. After completion of the culture, culture supernatant was sampled and production amounts of IL-17 therein were determined by ELISA method. After sampling the supernatant, WST-8 (Seikagaku Corporation) was added at 10 μl/well and cultured at 37° C., 5% carbon dioxide and 95% air for 4 hours. Then, absorbance (O.D.: Optical Density) at 450 nm was measured by a microplate reader and the value was adopted as an index of cell survivability. An inhibition rate was calculated according to the following formula on the basis of an average of production amounts of IL-17 and O.D. values of the well containing a test compound of each concentration. Inhibition (%)=(1−(Average value of well with addition of test compound)/(Average value of well without addition of test compound))×100
Based on the dose-response curve obtained by plotting the inhibition rate in the longitudinal axis and the concentration in the horizontal axis, the concentration of the compound which inhibits the level to 50% of the value of the control group (IC50) (nmol/L) was determined by linear regression analysis.

Row | Structure (SMILES) | pIC50
1 | Cc1c(C(=O)Nc2cnc(N3CCC(O)CC3)c(C3CC3)c2)cnn1-c1ccc(Cl)cc1Cl [Example 9, N-[5-cyclopropyl-6-(4-hydroxypiperidin-1-yl)pyridin-3-yl]-1-(2,4-dichlorophenyl)-5-methyl-1H-pyrazole-4-carboxamide] | 6.48
2 | Cc1cc(NC(=O)c2cnn(-c3ccc(C(F)(F)F)cc3)c2C)cnc1N1CCC(O)CC1 [Example 15, N-[6-(4-hydroxypiperidin-1-yl)-5-methylpyridin-3-yl]-5-methyl-1-[4-(trifluoromethyl)phenyl]-1H-pyrazole-4-carboxamide] | 6.53
3 | COC1CCN(c2ncc(NC(=O)c3cnn(-c4ccc(Cl)cc4)c3C)cc2C)CC1 [Example 16, 1-(4-chlorophenyl)-N-[6-(4-methoxypiperidin-1-yl)-5-methylpyridin-3-yl]-5-methyl-1H-pyrazole-4-carboxamide] | 6.58
4 | CC(=O)OC1CCN(c2ncc(NC(=O)c3cnn(-c4ccc(Cl)cc4)c3C)cc2C#N)CC1 [Example 19, acetic acid (1-{5-[1-(4-chlorophenyl)-5-methyl-1H-pyrazole-4-carboxamide]-3-cyanopyridin-2-yl}piperidin-4-yl)ester] | 6.67
5 | N#Cc1cc(NC(=O)c2cnn(-c3ccc(Cl)cc3)c2C2CC2)cnc1N1CCC(CCO)CC1 [Example 22, 1-(4-chlorophenyl)-N-{5-cyano-6-[4-(2-hydroxyethyl)piperidin-1-yl]pyridin-3-yl}-5-cyclopropyl-1H-pyrazole-4-carboxamide] | 6.71
6 | Cc1c(C(=O)Nc2cnc(N3CCC(O)CC3)c(C#N)c2)cnn1-c1ccc(C(C)(C)C)cc1 [Example 23, 1-(4-tert-butylphenyl)-N-[5-cyano-6-(4-hydroxypiperidin-1-yl)pyridin-3-yl]-5-methyl-1H-pyrazole-4-carboxamide] | 6.71
7 | Cc1cc(NC(=O)c2ccn(-c3ccc(C#N)cn3)c2)cnc1N1CCC(C(C)(C)F)CC1 [Example 24, 1-(5-cyanopyridin-2-yl)-N-{6-[4-(1-fluoro-1-methylethyl)piperidin-1-yl]-5-methylpyridin-3-yl}-1H-pyrrole-3-carboxamide] | 6.74
8 | CC(=O)OCCC1CCN(c2ncc(NC(=O)c3cnn(-c4ccc(F)cc4)c3C)cc2C#N)CC1 [Example 25, acetic acid [2-(1-{3-cyano-5-[1-(4-fluorophenyl)-5-methyl-1H-pyrazole-4-carboxamide]pyridin-2-yl}piperidin-4-yl)ethyl]ester] | 6.79
9 | Cc1cc(NC(=O)c2cnn(-c3ccccn3)c2C)cnc1N1CCC(CC(C)(C)O)CC1 [Example 26, N-{6-[4-(2-hydroxy-2-methylpropyl)piperidin-1-yl]-5-methylpyridin-3-yl}-5-methyl-1-(pyridin-2-yl)-1H-pyrazole-4-carboxamide] | 6.76
10 | Cc1cc(NC(=O)c2cnn(-c3ccc(F)c(F)c3)c2C)cnc1N1CCC(C(C)O)CC1 (stereo not shown) [Example 27, 1-(3,4-difluorophenyl)-N-{6-[4-(1-hydroxyethyl)piperidin-1-yl]-5-methylpyridin-3-yl}-5-methyl-1H-pyrazole-4-carboxamide] | 6.77
11 | Cc1cc(NC(=O)c2cnn(-c3ccc(F)cc3)c2C)cnc1N1CCC(C(C)O)CC1 (stereo not shown) [Example 28, 1-(4-fluorophenyl)-N-{6-[4-(1-hydroxyethyl)piperidin-1-yl]-5-methylpyridin-3-yl}-5-methyl-1H-pyrazole-4-carboxamide] | 6.77
12 | Cc1c(C(=O)Nc2cnc(N3CCC(=O)CC3)c(C#N)c2)cnn1-c1ccc(Cl)cc1 [Example 29, 1-(4-chlorophenyl)-N-[5-cyano-6-(4-oxopiperidin-1-yl)pyridin-3-yl]-5-methyl-1H-pyrazole-4-carboxamide] | 6.77
13 | Cc1c(C(=O)Nc2cnc(N3CCC(CCO)CC3)c(C#N)c2)cnn1-c1ccc(F)cc1 [Example 30, N-{5-cyano-6-[4-(2-hydroxyethyl)piperidin-1-yl]pyridin-3-yl}-1-(4-fluorophenyl)-5-methyl-1H-pyrazole-4-carboxamide] | 6.76
14 | COCCC1CCN(c2ncc(NC(=O)c3cnn(-c4ccc(C(F)(F)F)cn4)c3C)cc2C)CC1 [Example 31] | 6.80
15 | Cc1ccc(-n2ncc(C(=O)Nc3cnc(N4CCC(C(C)(C)F)CC4)c(C)c3)c2C)cc1 [Example 32, N-{6-[4-(1-fluoro-1-methylethyl)piperidin-1-yl]-5-methylpyridin-3-yl}-5-methyl-1-(4-methylphenyl)-1H-pyrazole-4-carboxamide] | 6.81
16 | COCC1CCN(c2ncc(NC(=O)c3cnn(-c4ccc(C(F)(F)F)cc4)c3C)cc2C)CC1 [Example 33, N-{6-[4-(1-methoxymethyl)piperidin-1-yl]-5-methylpyridin-3-yl}-5-methyl-1-[4-(trifluoromethyl)phenyl]-1H-pyrazole-4-carboxamide] | 6.82
17 | Cc1cc(NC(=O)c2cnn(-c3ccc(F)cc3)c2C)cnc1N1CCC(C(C)(C)F)CC1 [Example 34, N-{6-[4-(1-fluoro-1-methylethyl)piperidin-1-yl]-5-methylpyridin-3-yl}-1-(4-fluorophenyl)-5-methyl-1H-pyrazole-4-carboxamide] | 6.82
18 | COc1ccc(-n2ncc(C(=O)Nc3cnc(N4CCC(C(C)(C)F)CC4)c(C)c3)c2C)cc1 [Example 35, N-{6-[4-(1-fluoro-1-methylethyl)piperidin-1-yl]-5-methylpyridin-3-yl}-1-(4-methoxyphenyl)-5-methyl-1H-pyrazole-4-carboxamide] | 6.82
19 | Cc1c(C(=O)Nc2cnc(N3CCC(O)CC3)c(Cl)c2)cnn1-c1ccc(Cl)cc1 [Example 36, N-[5-chloro-6-(4-hydroxypiperidin-1-yl)pyridin-3-yl]-1-(4-chlorophenyl)-5-methyl-1H-pyrazole-4-carboxamide] | 6.85
20 | N#Cc1cc(NC(=O)c2ccn(-c3ccc(F)cc3)c2)cnc1N1CCC(CCO)CC1 [Example 37, N-{5-cyano-6-[4-(2-hydroxyethyl)piperidin-1-yl]pyridin-3-yl}-1-(4-fluorophenyl)-1H-pyrrole-3-carboxamide] | 6.85
21 | Cc1cc(NC(=O)c2cnn(-c3ccc(Cl)cn3)c2C)cnc1N1CCC(C(C)(C)F)CC1 [Example 38, 1-(5-chloropyridin-2-yl)-N-{6-[4-(1-fluoro-1-methylethyl)piperidin-1-yl]-5-methylpyridin-3-yl}-5-methyl-1H-pyrazole-4-carboxamide] | 6.85
22 | CC(=O)OCCC1CCN(c2ncc(NC(=O)c3cnn(-c4ccc(Cl)cc4)c3C)cc2C#N)CC1 [Example 40, acetic acid [2-(1-{5-[1-(4-chlorophenyl)-5-methyl-1H-pyrazole-4-carboxamide]-3-cyanopyridin-2-yl}piperidin-4-yl)ethyl]ester] | 6.94
23 | Cc1cc(NC(=O)c2cnn(-c3ccc(Cl)cc3)c2C)cnc1N1CCC(C(C)(C)F)CC1 [Example 41, 1-(4-chlorophenyl)-N-{6-[4-(1-fluoro-1-methylethyl)piperidin-1-yl]-5-methylpyridin-3-yl}-5-methyl-1H-pyrazole-4-carboxamide] | 6.95
24 | Cc1c(C(=O)Nc2cnc(N3CCC(CCO)CC3)c(C3CC3)c2)cnn1-c1ccc(Cl)cc1 [Example 42, 1-(4-chlorophenyl)-N-{5-cyclopropyl-6-[4-(2-hydroxyethyl)piperidin-1-yl]pyridin-3-yl}-5-methyl-1H-pyrazole-4-carboxamide] | 6.98
25 | Cc1cc(NC(=O)c2ccn(-c3ccc(C#N)cn3)c2)cnc1N1CCC(C(C)(C)O)CC1 [Example 46, 1-(5-cyanopyridin-2-yl)-N-{6-[4-(1-hydroxy-1-methylethyl)piperidin-1-yl]-5-methylpyridin-3-yl}-1H-pyrrole-3-carboxamide] | 7.22
26 | Cc1cc(NC(=O)c2cnn(-c3ncc(Cl)cc3Cl)c2C)cnc1N1CCC(C(C)(C)F)CC1 [Example 48, 1-(3,5-dichloropyridin-2-yl)-N-{6-[4-(1-fluoro-1-methylethyl)piperidin-1-yl]-5-methylpyridin-3-yl}-5-methyl-1H-pyrazole-4-carboxamide] | 7.25
27 | Cc1cc(NC(=O)c2cnn(-c3ccccc3)c2C)cnc1N1CCC(CC(C)(C)O)CC1 [Example 50, N-{6-[4-(2-hydroxy-2-methylpropyl)piperidin-1-yl]-5-methylpyridin-3-yl}-5-methyl-1-phenyl-1H-pyrazole-4-carboxamide] | 7.27
28 | Cc1c(C(=O)Nc2cnc(N3CCC(CCO)CC3)c(C#N)c2)cnn1-c1ccc(Cl)cc1 [Example 51, 1-(4-chlorophenyl)-N-{5-cyano-6-[4-(2-hydroxyethyl)piperidin-1-yl]pyridin-3-yl}-5-methyl-1H-pyrazole-4-carboxamide] | 7.27
